Tested on: CD8+ PBL
Assay: Flow cytometry (CD3, BV6-5) for induction of iTCR-NY-ESO on the surface of CD8+ PBL
Type: cell-based
Details: any of the concentrations tried (data not shown)
Procedure: FIG. 9: CD8^+ PBL transduced with iTCR-NY-ESO (MHC-I restricted TCR) or CD8^+ PBL expressing wt-NY-ESO were induced overnight with 1, 5, 10 or 20 μM Endoxifen or were left uninduced (no Endoxifen). 24 h after induction T2 cells loaded with relevant peptide SLLMWITQC (SEQ ID NO: 12) or irrelevant peptide VLDGLDVLL (SEQ ID NO: 11) were added to the cultures. IFN-γ secretion was detected by standard IFN-γ ELISA performed with the culture supernatants 24 h after stimulation with T2 targets. Flow cytometry was performed 48 h after induction and cells were assessed for BFP (transductants), CD3 and BV6-5. Exemplary plots shown are iTCR-NY-ESO transduced CD8^+ PBL without induction or with 20 μM Endoxifen. Plots were generated using the analysis tool FlowJo V10. Graph was plotted using graphPad Prism 7.
PBL from a healthy donor was enriched for CD8^+ cells using a commercial cell isolation kit (CD8+untouched) and transduced with the lentiviral vector carrying the iTCR-NY-ESO cassette or with the lentiviral vector carrying wt-NY-ESO as positive control. […] CD8^+ cells carrying either iTCR-NY-ESO were induced overnight with 20 μM Endoxifen or left untreated. Cells were then stained for CD3 (CD3-PECy7, SK7, 557851, BD) and the specific V-beta family BV6-5 (antibody: TRBV6-5-PE, IMMU 222, IM2292, Beckman Coulter).

CCC(=C(c1ccc(O)cc1)c1ccc(OCCN(C)C)cc1)c1ccccc1 [4-Hydroxytamoxifen, 4-(1-[4-(Dimethylaminoethoxy)phenyl]-2-phenyl-1-butenyl)phenol]
induction of iTCR-NY-ESO in PBL: did not induce iTCR-NY-ESO in PBL in any of the concentrations tried

From US12331095B2, “Inducible T cell receptors and uses thereof” (MEDIGENE IMMUNOTHERAPIES GMBH, priority 2018, dated 2025)
